We go through 4 compounds from patent US20030199424A1, “Method of treatment and/or prophylaxis” (priority 2002, published 2003).

Entries after “also recorded” stand apart in the source; their conditions may differ. Like-named read-outs stand apart in the source and are kept apart here.

Series [1] concerns STZ-diabetic rats. In words: Reversal protocol: AT1 antagonist from 12 wks post-STZ, morphine antinociception. The settings on record: tested at 16 wks post-STZ.
Protocol: STZ-diabetic rats (n=18) were allocated to one of three experimental groups. Groups one and two received once-daily oral administration of antihypertensive doses of one of the AT1-antagonists, viz candesartan (2.0 mg/kg/day)or losartan (20 mg/kg/day), commencing at 12 weeks post-STZ administration (day 0). The third group (control STZ-diabetic rats) received no treatment.
(§1) The mean (±SEM) percentage maximum AUC (% Max AUC) was calculated according to the following formula: [formula]
The Mann-Whitney test was used to compare %MAX AUC values between treatment groups. The statistical significance criterion was p<0.05.
The subject of series [2] is STZ-diabetic rats. The experiment in a line: Opioid-mediated antinociception (Von Frey, % MPE) in STZ-diabetic rats. As to conditions: for ED50: Rattus norvegicus.
Protocol: In all cases, opioids were administered by a single s.c. injection (100 μL) into the dorsal region at the base of the neck whilst under light CO2/O2 (50:50%) anaesthesia using a 250 μL Hamilton syringe. […] By contrast, the opioid-naïve, weight-matched, non-diabetic candesartan control rats were given high-dose oral candesartan (2 mg/kg/day) for 7 days before opioid testing was initiated.
Immediately prior to administration of s.c. bolus doses of either opioid, baseline paw withdrawal thresholds were quantified using VFFs in an identical manner to the weekly baseline Von Frey monitoring described above. Following s.c. opioid administration, VFF assessments were performed at the following post-dosing times: 15, 30, 45, 60, 90, 120 and 180 min.
The VFF scores for individual rats were converted to the Percentage of the Maximum Possible Antinociceptive Effect (% MPE), according the following formula (Brady & Holtzmann, 1982): [formula]
as §1
ED50 estimation was facilitated by inclusion of the theoretical maximum and minimum % Max AUC values. The Mann-Whitney test was used to compare %MPE AUC ED50 values between treatment groups. The statistical significance criterion was p<0.05.
The test system of the next series is non-diabetic rats. The experiment in a line: Opioid-mediated antinociception (Von Frey, % MPE) in non-diabetic control rats. It counts as in vivo, rat. As to conditions: for ED50: Rattus norvegicus. How it is done: A second group of STZ-diabetic rats received vehicle (DMSO:water 10:90) by oral gavage (protocol-control rats). In the third group, weight-matched, naive, non-diabetic control rats (non-diabetic candesartan control rats) were also treated with candesartan for one wk prior to opioid antinociceptive testing to determine any intrinsic effects of candesartan on baseline pain scores and on opioid-mediated antinociception.
The statistical significance criterion was p<0.05.

Series [3] concerns STZ-diabetic rats. As to conditions: s.c. oxycodone; STZ-diabetic rats over 24 wk study (Smith et al., 2001); cited from earlier work.
In a further series the target is T1, CYP2D6 (Homo sapiens, UniProt P10635).
T1 construct: low extent of CYP2D6-mediated O-demethylation of oxycodone to oxymorphone in humans; host or cells: human subjects (in vivo metabolism)
As to conditions: humans, CYP2D6-mediated; cited from earlier work.

Series [4] relates to STZ-diabetic rats. In words: Von Frey assessment of tactile allodynia (paw withdrawal threshold). It counts as in vivo, rat. How it is done:
Candesartan treatment was initiated after STZ administration (day 0) but prior to the onset of diabetes. Specifically, candesartan-treated rats received this drug via once-daily oral gavage in one of two dosages: viz a high-dose (2 mg/kg/day) or a low dose (0.5 mg/kg/day). The 2 mg/kg/day dose was chosen on the basis that it is an anti-hypertensive dose both in rats with perfused Ang II-induced hypertension and also in the spontaneously hypertensive rat (SHR) (Nishikawa et al., 1994, Blood Press, Suppl 5: 7-14). The low-dose ([…]) was included to investigate whether a sub-therapeutic dose (in terms of anti-hypertensive activity) of candesartan was efficacious for the treatment of PDN. Once initiated, oral once-daily candesartan was administered every day for 24 wks.
Tactile allodynia, the defining symptom of PDN, manifests as a hypersensitive response to non-noxious stimuli such as touch or light pressure, and was quantified using Von Frey filaments (VFFs). […] However, indirect methods have a questionable correlation with symptomatic severity (Malik et al., 1998, supra; Malik et al., 2001, supra). Therefore direct quantification of symptom severity using VFF assessment was used to obtain clinically relevant end points.
For each antinociceptive testing session, rats were placed in wire mesh metabolic cages (20 cm×20 cm×20 cm) and allowed to acclimatise to the test environment for approximately 10-15 min prior to the commencement of experiments. Calibrated VFFs, delivering a force in the range 2-20 g, were then applied to the plantar surface of the hind-paw to determine the paw withdrawal thresholds defined as the minimum force necessary to elicit a brisk foot withdrawal reflex. Commencing with the VFF delivering the lowest mechanical force, the filament was applied to the plantar surface of the footpad until buckling of the filament was observed. Absence of a response after approximately 3 s prompted application of the next VFF of increasing force to the footpad.
The onset and progression of the development of tactile allodynia in all STZ-diabetic rats were quantified by once weekly VFF paw withdrawal testing. Specifically for each rat, three separate assessments of paw withdrawal thresholds were undertaken, each approximately 5 min apart.

Series [5] is described as follows: Body weight, metabolic signs and general health of STZ-diabetic rats. It counts as in vivo, rat. As to conditions: 24 wks post-STZ rats, cessation of chronic candesartan 2.0 mg/kg/day. An excerpt:
Induction of STZ-diabetes produced an initial ≈5-10% reduction in (mean±SEM) body weight from 233 (±1.99) g pre-STZ administration to 218 (±3.28) g at 4 wks post-STZ, followed by a gradual return to the pre-study weight over the ensuing 6-mth study period (FIG. 1).
One rat died 5 wks after the cessation of candesartan therapy.

For series [6], the system named is STZ-diabetic rats. As to conditions: given to rats 4 wks after induction of diabetes with STZ (Maxfield et al., 1993); cited from earlier work.
The mark [7] stands for this setting: oxycodone 2.0 mg/kg s.c., candesartan (0.5 mg/kg/day) treated STZ-diabetic rats, 12 wks post-STZ.
The mark [8] stands for this setting: oxycodone 2.0 mg/kg s.c., candesartan (0.5 mg/kg/day) treated STZ-diabetic rats, 21 wks post-STZ.
Where [9] appears, read: oxycodone 2.0 mg/kg s.c., candesartan (0.5 mg/kg/day) treated STZ-diabetic rats, 24 wk post-STZ.
The mark [10] stands for this setting: oxycodone 2.0 mg/kg s.c., control STZ-diabetic rats, 9 wks post-STZ.
[11] abbreviates: oxycodone 2.0 mg/kg s.c., control STZ-diabetic rats, 12 wks post-STZ.
[12] abbreviates: oxycodone […] s.c., candesartan (0.5 mg/kg/day) treated STZ-diabetic rats, 3 wks post-STZ.
The mark [13] stands for this setting: oxycodone […] s.c., candesartan (0.5 mg/kg/day) treated STZ-diabetic rats, 9 wks post-STZ.
Where [14] appears, read: oral candesartan 0.5 mg/kg/day, by 22 wks post-STZ.
[15] abbreviates: oral candesartan 2 mg/kg/day once daily, 24 wk post-STZ study period, relative to non-diabetic control rats.

T1 sequence (P10635 whole entry): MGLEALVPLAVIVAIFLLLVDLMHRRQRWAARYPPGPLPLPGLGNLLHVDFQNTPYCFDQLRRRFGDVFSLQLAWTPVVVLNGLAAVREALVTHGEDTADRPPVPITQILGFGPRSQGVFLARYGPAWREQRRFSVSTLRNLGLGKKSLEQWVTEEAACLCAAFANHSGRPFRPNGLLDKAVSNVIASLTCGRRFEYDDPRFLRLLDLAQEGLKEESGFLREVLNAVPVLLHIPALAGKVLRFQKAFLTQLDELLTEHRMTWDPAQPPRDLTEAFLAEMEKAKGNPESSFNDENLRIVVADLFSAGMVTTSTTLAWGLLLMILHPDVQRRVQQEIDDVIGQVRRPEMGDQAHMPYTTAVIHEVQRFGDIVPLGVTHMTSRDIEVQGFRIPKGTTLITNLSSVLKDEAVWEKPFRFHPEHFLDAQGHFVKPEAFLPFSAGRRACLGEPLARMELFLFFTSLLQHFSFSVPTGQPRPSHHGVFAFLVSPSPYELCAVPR

`CCCCc1nc(Cl)c(CO)n1Cc1ccc(-c2ccccc2-c2nnn[nH]2)cc1` [losartan]: in the series with STZ-diabetic rats [1] (oral losartan 20 mg/kg/day for 4 wks commencing 12 wks post-STZ), the “Effect on morphine's antinociceptive effects (s.c. morphine 6.1 mg/kg)” value is “preserved morphine's antinociceptive effects; also recorded: morphine sensitivity was preserved”.
As for `COc1ccc2c3c1O[C@H]1C(=O)CC[C@@]4(O)[C@@H](C2)N(C)CC[C@]314` [oxycodone], the ED50 is 1.4 mg/kg in the series on STZ-diabetic rats [2] (504 h, read-out: mean (±SEM) ED50 of s.c. oxycodone); 1.3 mg/kg in the series with STZ-diabetic rats [2] (1512 h, read-out: mean (±SEM) ED50 of s.c. oxycodone); 1.1 mg/kg with STZ-diabetic rats [2] (4032 h, read-out: mean (±SEM) ED50 of s.c. oxycodone); about 1.5 mg/kg in the series on STZ-diabetic rats [2] (sc, 504 h, read-out: approximate ED50 oxycodone dose); about 2 mg/kg in the series with STZ-diabetic rats [2] (sc, 2016 h, read-out: approximate ED50 oxycodone dose); about 3.2 mg/kg in the series on STZ-diabetic rats [2] (sc, 4032 h, read-out: approximate ED50 oxycodone dose). Moreover, the ED50 with non-diabetic rats (sc, control untreated non-diabetic rats, read-out: mean (±SEM) ED50 of s.c. oxycodone) was 1.2 mg/kg; with non-diabetic rats (non-diabetic control rats on high-dose oral candesartan 2.0 mg/kg/day, read-out: ED50 of s.c. oxycodone), 1.1 mg/kg. In addition, the “Mean (±SEM) % MPE AUC” value with STZ-diabetic rats [2] (setting [7]) is recorded as 116 (±8.2) % MPE.h; in the series with STZ-diabetic rats [2] (setting [8]), 171 (±8.3) % MPE.h; in the series with STZ-diabetic rats [2] (setting [9]) it was 145 (±13.0) % MPE.h; in the series with STZ-diabetic rats [2] (setting [10]), 162 (±3.2) % MPE.h; in the series with STZ-diabetic rats [2] (setting [11]), 168 (±5.2) % MPE.h; in the series on STZ-diabetic rats [2] (oxycodone 2.2** mg/kg s.c., candesartan (2.0 mg/kg/day) treated STZ-diabetic rats, 12 wks post-STZ), 158 (±6.9) % MPE.h. Also, the “Mean (±SEM) % MPE AUC” value in the series on STZ-diabetic rats [2] (oxycodone […] s.c., STZ-diabetic rats, 4 wks candesartan (2.0 mg/kg/day) re-initiation) was 157 (±8.5) % MPE.h; in the series with STZ-diabetic rats [2] (setting [12]) it was 131 (±7.9) % MPE.h; with STZ-diabetic rats [2] (setting [13]) it was 122 (±9.1) % MPE.h; with STZ-diabetic rats [2] (oxycodone […] s.c., candesartan (2.0 mg/kg/day) treated STZ-diabetic rats, 3 wks post-STZ), 120 (±8.9) % MPE.h; in the series with STZ-diabetic rats [2] (oxycodone […] s.c., candesartan (2.0 mg/kg/day) treated STZ-diabetic rats, 9 wks post-STZ), 136 (±13.3) % MPE.h; in the series on non-diabetic rats (oxycodone […] s.c., candesartan (2.0 mg/kg/day) treated non-diabetic rats) it was 155 (±8.5) % MPE.h. The “Mean (±SEM) dose normalised % MPE AUC” value in the series with STZ-diabetic rats [2] (setting [7]) was 67.70 (±4.111) % MPE AUC.h.kg.mg^−1; in the series on STZ-diabetic rats [2] (setting [8]), 85.34 (±4.134) % MPE AUC.h.kg.mg^−1; in the series on STZ-diabetic rats [2] (setting [9]) it was 72.45 (±6.527) % MPE AUC.h.kg.mg^−1; in the series with STZ-diabetic rats [2] (setting [10]) it was 80.8 (±1.6) % MPE AUC.h.kg.mg^−1; in the series with STZ-diabetic rats [2] (setting [11]) it was 84.2 (±2.6) % MPE AUC.h.kg.mg^−1; in the series on STZ-diabetic rats [2] (setting [12]), 109.5 (±6.549) % MPE AUC.h.kg.mg^−1. Moreover, the “Mean (±SEM) dose normalised % MPE AUC” value with STZ-diabetic rats [2] (setting [13]) is reported as 102.1 (±7.611) % MPE AUC.h.kg.mg^−1; in the series with STZ-diabetic rats [2] (oxycodone […] s.c., control STZ-diabetic rats, 3 wks post-STZ), 115.5 (±3.1) % MPE AUC.h.kg.mg^−1; with STZ-diabetic rats [2] (oxycodone […] s.c., control STZ-diabetic rats, 24 wks post-STZ), 44.1 (±2.4) % MPE AUC.h.kg.mg^−1. Also, the “decrease in antinociceptive response (%MPE AUC) versus non-diabetic protocol control rats” value in the series with STZ-diabetic rats [2] (oxycodone […] s.c., candesartan (2.0 mg/kg/day) STZ-diabetic rats, 3 wks post-STZ) is on record as “≈ 20%”. In addition, the “decrease in oxycodone potency versus non-diabetic protocol control rats” value in the series on STZ-diabetic rats [2] (oxycodone […], candesartan (0.5 mg/kg/day) STZ-diabetic rats, 9 wks post-STZ) worked out at 20%. Also, the “decrease in potency versus protocol controls” value in the series on STZ-diabetic rats [2] (oxycodone, candesartan (0.5 mg/kg/day) STZ-diabetic rats, by 12 wks post-STZ) was about 50%. The “decrease in dose-normalised %MPE AUC versus protocol-control non-diabetic rats” value in the series with STZ-diabetic rats [2] (oxycodone, low-dose candesartan (0.5 mg/kg/day) STZ-diabetic rats, 24 wks post-STZ) is listed as about 1.5 fold. Besides, in the series with STZ-diabetic rats [3], the “decrease in potency relative to non-diabetic control rats” value is 4 fold. In addition, the “fraction of each dose O-demethylated to oxymorphone” value at CYP2D6 is listed as under 5%.
Turning to candesartan, the “Mean (±SEM) paw withdrawal threshold” value in the series on STZ-diabetic rats [4] (24 wks post-STZ on oral candesartan 2.0 mg/kg/day, immediately prior to cessation) is 11.9 (±0.2) g; in the series with STZ-diabetic rats [4] (six wks after cessation of chronic oral candesartan 2.0 mg/kg/day) it was 6.0 (±0.3) g; with STZ-diabetic rats [4] (within two wks of re-initiation of oral candesartan 2.0 mg/kg/day), 11.3 ± 0.1 g. Moreover, the “Development of tactile allodynia (Von Frey filaments)” value is reported as “only delayed but did not prevent the development of tactile allodynia” with STZ-diabetic rats [4] (oral candesartan 0.5 mg/kg/day once daily for 24 wks from STZ administration) and “completely attenuated the development of tactile allodynia” in the series with STZ-diabetic rats [4] (oral candesartan 2.0 mg/kg/day once daily for 24 wks from STZ administration). In the series with STZ-diabetic rats [4] (setting [14]), the “Paw withdrawal latencies versus rats given high-dose candesartan” value is given as “significantly lower”. Moreover, the “Paw withdrawal thresholds versus untreated STZ-diabetic control rats” value in the series on STZ-diabetic rats [4] (setting [14]) is on record as “not significantly different”. In addition, the “Mean paw withdrawal threshold versus non-diabetic control rodents” value in the series on STZ-diabetic rats [4] (oral candesartan 2.0 mg/kg/day, 24 wks post-STZ) is recorded as “not significantly different”. For the same compound, in the series with STZ-diabetic rats [4] (re-initiation of oral candesartan 2.0 mg/kg/day for six wks after six wks cessation), the “Paw withdrawal thresholds after re-initiation of treatment” value is recorded as “restored the paw withdrawal thresholds”. For the same compound, the “Effect on loss of morphine potency” value with STZ-diabetic rats [2] (oral candesartan 0.5 mg/kg/day once daily, relative to control untreated STZ-diabetic rats) is recorded as “attenuated the loss of morphine potency”. Also, the “Effect on temporal loss of morphine potency and efficacy” value in the series with STZ-diabetic rats [2] (setting [15]) is “completely prevented the temporal loss of morphine potency and efficacy”. Also, the “Effect on temporal loss of oxycodone potency and efficacy” value with STZ-diabetic rats [2] (setting [15]) was “completely prevented the temporal loss of oxycodone potency and efficacy”. Further, in series [5], the “Physical appearance and health after cessation of treatment” value is “apparent general decline in the physical appearance and health”. Further, in the series with STZ-diabetic rats [1] (oral candesartan 2 mg/kg/day for 4 wks commencing 12 wks post-STZ), the “Effect on morphine's antinociceptive effects (s.c. morphine 6.1 mg/kg)” value is recorded as “preserved morphine's antinociceptive effects; also recorded: morphine sensitivity was preserved”.
For the compound `CCc1cc2c(c(OCc3ccc(-c4ccccc4-c4nnn[nH]4)cc3)c1)CCCC2` [ZD 8731], in the series on STZ-diabetic rats [6], the “Nerve blood flow (NBF) deficits” value is given as “significant improvements” and the “Reduction in nerve conduction velocity (NCV)” value is given as “completely reverses”.

What is called ED50 is the dose at which the effect has come halfway, by size or by number of responders.
